Laboratory results: patent publication US8227207B2, “Bioactive peptides derived from the proteins of egg white by means of enzymatic hydrolysis” (Consejo Superior de Investigaciones Cientifcas, priority 2004, dated 2012)
Residues, ends and D or L forms follow the SMILES beside them.

Target: T1, angiotensin converting enzyme (ACE, EC 3.4.15.1) (Oryctolagus cuniculus, UniProt P12822)
T1 sequence (P12822 34-1310): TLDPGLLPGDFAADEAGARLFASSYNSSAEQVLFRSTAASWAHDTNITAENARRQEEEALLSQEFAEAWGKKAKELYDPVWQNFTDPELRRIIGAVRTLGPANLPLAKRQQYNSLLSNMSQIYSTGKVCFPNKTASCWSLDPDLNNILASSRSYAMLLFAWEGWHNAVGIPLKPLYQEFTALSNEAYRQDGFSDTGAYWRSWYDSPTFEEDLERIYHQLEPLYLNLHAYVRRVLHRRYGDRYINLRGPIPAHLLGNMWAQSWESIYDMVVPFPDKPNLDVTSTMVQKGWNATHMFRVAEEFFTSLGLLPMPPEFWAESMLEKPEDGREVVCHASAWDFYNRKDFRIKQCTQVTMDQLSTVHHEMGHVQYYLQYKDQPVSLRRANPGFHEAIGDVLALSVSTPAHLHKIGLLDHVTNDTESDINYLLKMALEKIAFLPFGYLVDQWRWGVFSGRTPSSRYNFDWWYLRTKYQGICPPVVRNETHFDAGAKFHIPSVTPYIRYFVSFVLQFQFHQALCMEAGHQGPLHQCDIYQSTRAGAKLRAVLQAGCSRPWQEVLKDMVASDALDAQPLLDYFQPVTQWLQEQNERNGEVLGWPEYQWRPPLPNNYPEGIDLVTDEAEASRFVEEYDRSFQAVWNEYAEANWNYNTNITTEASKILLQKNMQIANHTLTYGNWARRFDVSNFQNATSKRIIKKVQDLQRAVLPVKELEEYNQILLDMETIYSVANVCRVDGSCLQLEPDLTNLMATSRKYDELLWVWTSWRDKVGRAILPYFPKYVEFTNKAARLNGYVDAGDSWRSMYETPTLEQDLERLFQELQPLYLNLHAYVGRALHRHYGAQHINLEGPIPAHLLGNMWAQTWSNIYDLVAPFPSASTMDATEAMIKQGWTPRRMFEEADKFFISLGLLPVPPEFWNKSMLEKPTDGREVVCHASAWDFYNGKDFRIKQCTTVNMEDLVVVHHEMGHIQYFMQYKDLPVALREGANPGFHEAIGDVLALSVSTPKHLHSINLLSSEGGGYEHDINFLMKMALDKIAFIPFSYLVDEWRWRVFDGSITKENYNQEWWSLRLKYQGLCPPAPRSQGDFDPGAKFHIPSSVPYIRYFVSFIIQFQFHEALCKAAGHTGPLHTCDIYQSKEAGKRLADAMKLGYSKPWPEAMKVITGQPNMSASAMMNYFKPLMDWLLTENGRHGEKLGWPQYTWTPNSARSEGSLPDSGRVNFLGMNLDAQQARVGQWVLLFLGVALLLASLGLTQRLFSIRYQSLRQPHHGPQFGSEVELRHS
Type: biochemical
Method: The inhibitory activity of the angiotensin converting enzyme (ACE) is measured in vitro according to the method of D. W. Cushman and H. S. Cheung (Spectrophotometric assay and properties of the angiotensin-converting enzyme of rabbit lung. Biochemical Pharmacology, 1971, 20: 1637-1648), later on modified by Y. K. Kim, S. Yoon, D. Y. Yu, B. Lönnerdal and B. H. Cheung (Novel angiotensin-I-converting enzyme inhibitory peptides derived from recombinant human αs1-casein expressed in Escherichia coli, Journal of Dairy Research 1999, 66, 431-439).
The substrate hippuryl histidyl leucine (HHL, Sigma Chemicals Co., St. Louis, Mo., USA) is dissolved in a 0.1 M borate buffer with 0.3 M NaCl pH 8.3 to obtain a final concentration of 5 mM. To 100 μl of substrate are added 40 μl of each of the samples whose ACEI activity it is wished to determine. The ACE enzyme (EC 3.4.15.1, Sigma) is added, dissolved in 50% glycerol and diluted 1/10 in bidistilled water at the moment of conducting the assay. The reaction is carried out at 37° C. for 30 minutes in a water-bath. The enzyme is deactivated by lowering the pH with 150 μl of 1 N HCl. The hippuric acid formed is extracted with 1000 μl of ethyl acetate. Following vortex stirring for 20 seconds, it is centrifuged at 4000 rpm for 10 minutes at room temperature. 750 μl of the organic phase are taken and evaporated by heating at 95° C. for 10 minutes. The hippuric acid residue is redissolved in 800 μl of bidistilled water and, following stirring for 20 seconds, the absorbency at 228 nm is measured in a Dur-70 spectrophotometer from Beckman Instruments, Inc., Fullerton, USA.
In order to calculate the percentage of ACEI activity, the following formula is used
The blank is used for correcting the background absorbency. This contains substrate, enzyme and 20 μl of bidistilled water in place of the sample, and the reaction is halted at zero time. The control implies a hundred percent of the enzymatic action on the substrate in the absence of inhibitors and contains 20 μl of water in place of the sample and is incubated the same time as the sample.
The results are presented as the IC50 (μM or μg/ml) or concentration at which 50% of the enzyme's activity is inhibited. The concentration of protein is determined by means of the bicinchonomic acid (BCA) assay (Pierce, Rockford, Ill., USA) using bovine seroalbumin as reference.

Question: What does the source list for CC[C@H](C)[C@H](NC(=O)[C@@H]1CCCN1C(=O)[C@H](Cc1ccc(O)cc1)NC(=O)[C@H](CCCNC(=N)N)NC(=O)[C@H](CCC(=O)O)NC(=O)[C@H](CCC(=O)O)NC(=O)[C@H](C)NC(=O)[C@@H](N)Cc1ccc(O)cc1)C(=O)N[C@@H](CC(C)C)C(=O)O [SEQ. ID. N^o 6] (H-YAEERYPIL-OH; N-terminus and C-terminus assumed)?
Answer: ACEI activity in vitro (in words) (peptides): potent ACEI activity; IC50 (read-out: ACEI activity IC50, synthetic peptides): 4.7 µM
